Biological target: T1, RET V804M (Homo sapiens, UniProt P07949, V804M)
T1 construct: purchased Thermo Fisher Scientific (Life Technologies) SelectScreen
Experiment: SelectScreen LanthaScreen
Type: binding
Conditions: read-out: % displacement
How it was run: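 NU5455 was profiled across the SelectScreen Broad panel of kinase activity and binding assays. Z'LYTE reactions such as CSF1R ran at apparent Km ATP, while the Adapta CAMK1 assay used ATP listed as 10. Values are given as percent.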

T1 sequence (P07949 29-1114 V804M): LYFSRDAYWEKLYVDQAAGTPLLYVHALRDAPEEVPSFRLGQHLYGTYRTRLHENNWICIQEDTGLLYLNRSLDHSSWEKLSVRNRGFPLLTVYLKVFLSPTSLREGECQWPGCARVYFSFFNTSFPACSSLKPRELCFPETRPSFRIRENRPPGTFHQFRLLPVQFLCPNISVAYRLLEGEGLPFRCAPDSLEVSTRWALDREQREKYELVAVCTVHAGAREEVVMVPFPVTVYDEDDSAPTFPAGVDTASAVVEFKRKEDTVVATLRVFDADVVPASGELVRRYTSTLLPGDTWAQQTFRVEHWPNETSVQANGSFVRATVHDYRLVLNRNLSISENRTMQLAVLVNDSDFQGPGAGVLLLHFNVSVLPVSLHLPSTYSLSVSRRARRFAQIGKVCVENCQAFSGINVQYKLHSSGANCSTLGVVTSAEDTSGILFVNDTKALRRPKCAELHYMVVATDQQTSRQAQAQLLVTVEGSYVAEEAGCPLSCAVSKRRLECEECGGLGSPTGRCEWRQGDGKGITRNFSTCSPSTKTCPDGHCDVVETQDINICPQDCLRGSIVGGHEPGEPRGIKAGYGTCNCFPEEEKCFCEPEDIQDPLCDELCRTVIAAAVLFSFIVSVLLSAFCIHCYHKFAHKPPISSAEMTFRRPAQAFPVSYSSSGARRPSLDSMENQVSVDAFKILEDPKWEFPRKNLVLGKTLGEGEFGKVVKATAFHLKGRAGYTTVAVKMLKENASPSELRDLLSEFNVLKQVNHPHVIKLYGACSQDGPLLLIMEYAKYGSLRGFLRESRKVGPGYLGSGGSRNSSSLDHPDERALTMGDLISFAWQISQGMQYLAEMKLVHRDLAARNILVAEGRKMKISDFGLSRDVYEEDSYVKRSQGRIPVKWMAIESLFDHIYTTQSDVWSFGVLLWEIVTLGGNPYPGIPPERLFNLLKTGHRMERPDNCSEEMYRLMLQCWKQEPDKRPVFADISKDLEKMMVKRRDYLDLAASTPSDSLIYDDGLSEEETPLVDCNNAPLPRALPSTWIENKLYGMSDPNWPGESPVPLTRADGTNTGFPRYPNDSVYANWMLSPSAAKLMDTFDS

## CN(C(=O)CN1CCOCC1)c1ccc2sc3c(-c4cccc5c(=O)cc(N6CC7CCC(C6)O7)oc45)cccc3c2c1 [NU5455]
  inhibition at 1 µM: 11.3%
